We go through 14 molecules from patent US20240208964A1, “PYRIDOPYRIMIDINES AND METHODS OF THEIR USE” (PYRIDOPYRIMIDINES AND METHODS OF THEIR USE, priority 2020, published 2024).

The subject of one test is FAB1 TDP-43 yeast strain. Put plainly: Propidium iodide viability assay in FAB1 TDP-43 control yeast strain. It is filed as cell-based. The conditions noted are these: for FAB1 TDP-43 (active/inactive): FAB1 TDP-43 yeast model. An excerpt: (§1) Generation of TDP-43 yeast model expressing human PIKfyve. Human PIKFYVE (“entry clone”) was cloned into pAG416GPDccdB (“destination vector”) according to standard Gateway cloning protocols (Invitrogen, Life Technologies). The resulting pAG416GPD-PIKFYVE plasmids were amplified in E. coli and plasmid identity confirmed by restriction digest and Sanger sequencing. Lithium acetate/polyethylene glycol-based transformation was used to introduce the above PIKFYVE plasmid into a BY4741 yeast strain auxotrophic for the ura3 gene and deleted for two transcription factors that regulate the xenobiotic efflux pumps, a major efflux pump, and FAB1, the yeast ortholog of PIKFYVE (MATa, snq2::KILeu2; pdr3::Klura3;pdrl::NATMX; fab1::G418^R, his3;leu2;ura3;met15;LYS2+) (FIG. 2). Transformed yeast were plated on solid agar plates with complete synthetic media lacking uracil (CSM-ura) and containing 2% glucose. Individual colonies harboring the control or PIKFYVE TDP-43 plasmids were recovered. A plasmid containing wild-type TDP-43 under the transcriptional control of the GAL1 promoter and containing the hygromycin-resistance gene as a selectable marker was transformed into the fab1::G418^R pAG416GPD-PIKFYVE yeast strain (FIG. 1). Transformed yeast were plated on CSM-ura containing 2% glucose and 200 μg/mL […] after overnight recovery in media lacking antibiotic. Multiple independent isolates were further evaluated for cytotoxicity and TDP-43 expression levels.
(§2) Viability Assay. A control yeast strain with the wild-type yeast FAB1 gene and TDP-43 (“FAB1 TDP-43”, carries empty pAG416 plasmid), and the “PIKFYVE TDP-43” yeast strain, were assessed for toxicity using a propidium iodide viability assay. Both yeast strains were transferred from solid CSM-ura/2% glucose agar plates into 3 mL of liquid CSM-ura/2% glucose media for 6-8 hours at 30° C. with aeration. Yeast cultures were then diluted to an optical density at 600 nm wavelength (OD600) of 0.005 in 3 mL of CSM-ura/2% raffinose and grown overnight at 30° C. with aeration to an OD600 of 0.3-0.8. Log-phase overnight cultures were diluted to OD600 of 0.005 in CSM-ura containing either 2% raffinose or galactose and 150 μL dispensed into each well of a flat bottom 96-well plates. Compounds formulated in 100% dimethyl sulfoxide (DMSO) were serially diluted in DMSO and 1.5 μL diluted compound transferred to the 96-well plates using a multichannel pipet. Wells containing DMSO alone were also evaluated as controls for compound effects. Tested concentrations ranged from 15 μM to 0.11 μM. Cultures were immediately mixed to ensure compound distribution and covered plates incubated at 30° C. for 24 hours in a stationary, humified incubator.
(§3) Upon the completion of incubation, cultures were assayed for viability using propidium iodide (PI) to stain for dead/dying cells. A working solution of PI was made where, for each plate, 1 μL of 10 mM PI was added to 10 mL of CSM-ura (raffinose or galactose). The final PI solution (50 μL/well) was dispensed into each well of a new round bottom 96-well plate. The overnight 96-well assay plate was then mixed with a multichannel pipet and 50 μL transferred to the PI-containing plate. This plate was then incubated for 30 minutes at 30° C. in the dark. A benchtop flow cytometer (Miltenyi MACSquant) was then used to assess red fluorescence (B2 channel), forward scatter, and side scatter (with following settings: gentle mix, high flow rate, fast measurement, 10,000 events). Intensity histograms were then gated for “PI-positive” or “PI-negative” using the raffinose and galactose cultures treated with DMSO as controls. The DMSO controls for raffinose or galactose-containing cultures were used to determine the window of increased cell death and this difference set to 100. All compounds were similarly gated and then compared to this maximal window to establish the percent reduction in PI-positive cells.

Test [1] concerns PIKFYVE TDP-43 yeast strain. In words: Propidium iodide viability assay in PIKFYVE TDP-43 yeast strain. It counts as cell-based. The conditions noted are these: for PIKfyve TDP-43 (active/inactive): PIKFYVE TDP-43 yeast model.
Text: as §1, §2, §3

Test [2] deals with full-length human PIKFYVE (GST-PIKFYVE) (Homo sapiens (Human), UniProt Q9Y2I7, L932S/Q1183K/Q995L/S1033A/S696N/T998S). Put plainly: PIKfyve biochemical assay (ADP-Glo Kinase assay, Carna Biosciences). Conditions: ADP-Glo, full-length human PIKFYVE; read-out: hPIKfyve IC50. From the text: PIKfyve Biochemical Assay. The biochemical PIKFyve inhibition assays were run by Carna Biosciences according to proprietary methodology based on the Promega ADP-Glo™ Kinase assay. A full-length human PIKFYVE [1-2098(end) amino acids and S696N, L932S, Q995L, T998S, S1033A and Q1183K of the protein having the sequence set forth in NCBI Reference Sequence No. NP_055855.2] was expressed as N-terminal GST-fusion protein (265 kDa) using baculovirus expression system. GST-PIKFYVE was purified by using glutathione sepharose chromatography and used in an ADP-Glo™ Kinase assay (Promega). Reactions were set up by adding the test compound solution, substrate solution, ATP solution and kinase solution, each at 4× final concentrations. Reactions were prepared with assay buffer (50 mM MOPS, 1 mM DTT, pH7.2), mixed, and incubated in black 384 well polystyrene plates for 1 hour at room temperature. ADP-Glo™ reagent was then added for 40 minutes, followed by kinase detection reagent for an additional 40 minutes. The kinase activity was evaluated by detecting relative light units on a luminescence plate reader. Samples were run in duplicate from 10 μM to 3 nM. […] IC50 values were calculated from concentration vs % inhibition curves by fitting to a four-parameter logistic curve.
Sequence of full-length human PIKFYVE (GST-PIKFYVE) (Q9Y2I7 whole entry S696N/L932S/Q995L/T998S/S1033A/Q1183K, the tested form may be a part): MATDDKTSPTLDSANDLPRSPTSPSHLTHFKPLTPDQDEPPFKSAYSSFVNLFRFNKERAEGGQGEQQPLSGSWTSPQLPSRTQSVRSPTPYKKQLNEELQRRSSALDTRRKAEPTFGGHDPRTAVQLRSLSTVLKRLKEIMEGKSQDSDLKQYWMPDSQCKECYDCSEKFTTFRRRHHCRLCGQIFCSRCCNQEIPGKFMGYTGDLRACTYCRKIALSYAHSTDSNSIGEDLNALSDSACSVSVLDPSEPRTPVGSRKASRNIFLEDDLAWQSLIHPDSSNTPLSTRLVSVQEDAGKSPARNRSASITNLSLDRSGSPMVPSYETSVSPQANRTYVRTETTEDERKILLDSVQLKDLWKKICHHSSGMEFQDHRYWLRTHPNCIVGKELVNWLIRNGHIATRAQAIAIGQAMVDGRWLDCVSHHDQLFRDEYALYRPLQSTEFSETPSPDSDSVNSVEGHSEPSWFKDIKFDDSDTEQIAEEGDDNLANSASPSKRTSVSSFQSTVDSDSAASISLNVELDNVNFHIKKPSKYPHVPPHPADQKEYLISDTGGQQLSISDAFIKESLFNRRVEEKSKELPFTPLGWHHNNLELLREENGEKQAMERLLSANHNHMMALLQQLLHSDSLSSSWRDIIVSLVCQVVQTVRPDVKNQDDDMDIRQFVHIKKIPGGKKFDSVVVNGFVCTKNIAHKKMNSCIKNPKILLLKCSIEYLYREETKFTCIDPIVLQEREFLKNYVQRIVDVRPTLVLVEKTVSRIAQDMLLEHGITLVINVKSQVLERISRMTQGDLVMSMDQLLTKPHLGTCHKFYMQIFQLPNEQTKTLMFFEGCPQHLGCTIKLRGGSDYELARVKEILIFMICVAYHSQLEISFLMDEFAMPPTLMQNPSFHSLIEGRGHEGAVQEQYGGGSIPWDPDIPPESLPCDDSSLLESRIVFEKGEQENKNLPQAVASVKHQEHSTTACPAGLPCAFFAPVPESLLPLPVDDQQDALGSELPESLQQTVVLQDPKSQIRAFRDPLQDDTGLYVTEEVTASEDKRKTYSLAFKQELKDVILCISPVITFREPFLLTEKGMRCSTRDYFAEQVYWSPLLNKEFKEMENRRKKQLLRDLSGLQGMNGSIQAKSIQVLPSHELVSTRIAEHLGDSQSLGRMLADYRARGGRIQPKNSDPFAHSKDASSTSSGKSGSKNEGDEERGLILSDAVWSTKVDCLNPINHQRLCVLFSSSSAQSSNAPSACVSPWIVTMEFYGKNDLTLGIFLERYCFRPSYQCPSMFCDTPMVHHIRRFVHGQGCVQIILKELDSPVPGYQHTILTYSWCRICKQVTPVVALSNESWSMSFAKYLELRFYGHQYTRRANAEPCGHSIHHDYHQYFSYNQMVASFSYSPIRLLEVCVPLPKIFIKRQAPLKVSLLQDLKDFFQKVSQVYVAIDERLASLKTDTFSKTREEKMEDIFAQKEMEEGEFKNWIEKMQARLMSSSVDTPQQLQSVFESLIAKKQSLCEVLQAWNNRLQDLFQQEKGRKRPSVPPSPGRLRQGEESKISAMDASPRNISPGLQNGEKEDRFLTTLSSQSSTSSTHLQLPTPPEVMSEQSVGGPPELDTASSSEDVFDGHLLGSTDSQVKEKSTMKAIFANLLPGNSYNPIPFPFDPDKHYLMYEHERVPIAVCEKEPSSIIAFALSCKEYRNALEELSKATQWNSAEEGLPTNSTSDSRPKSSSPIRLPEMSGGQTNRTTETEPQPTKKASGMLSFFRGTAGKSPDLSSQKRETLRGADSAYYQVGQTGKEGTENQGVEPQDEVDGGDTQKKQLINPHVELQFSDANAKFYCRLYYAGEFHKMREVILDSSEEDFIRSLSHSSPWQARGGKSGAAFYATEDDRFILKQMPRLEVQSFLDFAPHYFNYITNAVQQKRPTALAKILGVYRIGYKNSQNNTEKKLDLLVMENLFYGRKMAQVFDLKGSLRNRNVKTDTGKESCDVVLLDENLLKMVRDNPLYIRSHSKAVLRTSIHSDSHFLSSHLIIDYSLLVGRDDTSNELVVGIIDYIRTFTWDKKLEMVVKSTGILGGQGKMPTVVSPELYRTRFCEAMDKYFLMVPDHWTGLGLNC
The biochemical PIKFyve inhibition assays were run by Carna Biosciences according to proprietary methodology based on the Promega ADP-Glo™ Kinase assay. A full-length human PIKFYVE [1-2098(end) amino acids and S696N, L932S, Q995L, T998S, S1033A and Q1183K of accession number NP_055855.2] was expressed as N-terminal GST-fusion protein (265 kDa) using baculovirus expression system. GST-PIKFYVE was purified by using glutathione sepharose chromatography and used in an ADP-Glo™ Kinase assay (Promega).
Reactions were set up by adding the test compound solution, substrate solution, ATP solution and kinase solution, each at 4× final concentrations. Reactions were prepared with assay buffer (50 mM MOPS, 1 mM DTT, pH7.2), mixed, and incubated in black 384 well polystyrene plates for 1 hour at room temperature. ADP-Glo™ reagent was then added for 40 minutes, followed by kinase detection reagent for an additional 40 minutes. The kinase activity was evaluated by detecting relative light units on a luminescence plate reader. Samples were run in duplicate from 10 uM to 3 nM. […] IC50 values were calculated from concentration vs % inhibition curves by fitting to a four-parameter logistic curve.

The target of test [3] is PIKfyve (PIKFYVE-NanoLuc fusion in HEK293 cells) (Homo sapiens (Human), UniProt Q9Y2I7). Put plainly: NanoBRET TE Intracellular Kinase Assay, K-8 (Promega) cell-based assay. The conditions noted are these: 2 hours, read-out: hPIKfyve BRET IC50. As to the method: NanoBRET™ TE Intracellular Kinase Assay, K-8 (Promega) Cell-Based Assay. Intracellular inhibition of PIKfyve was assayed using Promega's NanoBRET™ TE Intracellular Kinase Assay, K-8 according to manufacturer's instructions. A dilution series of test compounds was added for 2 hours to HEK293 cells transfected for a minimum of 20 hours with PIKFYVE-NanoLuc® Fusion Vector (Promega) containing a full-length PIKfyve according to manufacturer's specifications in a 96-well plate. Kinase activity was detected by addition of a NanoBRET™ tracer reagent, which was a proprietary PIKfyve inhibitor appended to a fluorescent probe (BRET, bioluminescence resonance energy transfer). Test compounds were tested at concentrations of 10, 3, 1, 0.3, 0.1, 0.03, 0.01, 0.003 μM. BRET signals were measured by a GloMax®Discover Multimode Microplate Reader (Promega) using 0.3 sec/well integration time, 450BP donor filter and 600LP acceptor filters. Active test compounds that bound PIKfyve and displaced the tracer reduced BRET signal. IC50 values were then calculated by fitting the data to the normalized BRET ratio.
Sequence of PIKfyve (PIKFYVE-NanoLuc fusion in HEK293 cells) (Q9Y2I7 whole entry, the tested form may be a part): as the sequence (Q9Y2I7 whole entry S696N/L932S/Q995L/T998S/S1033A/Q1183K, the tested form may be a part) above, with N696S, S932L, L995Q, S998T, A1033S, K1183Q counted along it
On the technique in general: BRET reads energy transfer from a luciferase to a nearby fluorophore.

As for `Cc1cccc(/C=N/Nc2nc(N3CCOCC3)c3nc(-c4ccncc4)n(C)c3n2)c1` [drawing 294], the “FAB1 TDP-43 (active/inactive)” value in the test with FAB1 TDP-43 yeast strain was “Inactive”. Also, the “PIKfyve TDP-43 (active/inactive)” value in test [1] was “Active”.

Consider `c1ccc(Nc2nc(N3CCOCC3)c3ncc(Cc4cccnc4)cc3n2)cc1` [compound 79], for which the IC50 in test [2] and in test [3] was 100 to 1000 nM in each case.

On to `CN(C)c1cc(N2CCOCC2)n2nc(-c3ccncc3)cc2n1`, for which the “FAB1 TDP-43 (active/inactive)” value with FAB1 TDP-43 yeast strain is reported as “Inactive”. Further, in test [1], the “PIKfyve TDP-43 (active/inactive)” value is reported as “Inactive”.

Consider `N#Cc1cc(N2CCOCC2)n2nc(-c3ccncc3)cc2n1`, for which the “FAB1 TDP-43 (active/inactive)” value in the test with FAB1 TDP-43 yeast strain is on record as “Inactive”. Also, the “PIKfyve TDP-43 (active/inactive)” value in test [1] is listed as “Inactive”.

For the molecule `Cc1cccc(/C=N/Nc2cc(N3CCOCC3)n3nc(-c4ccncc4)cc3n2)c1` [APY0201, reference compound], in the test on FAB1 TDP-43 yeast strain (range of compound concentrations (only 0.23 μM is shown), FIG. 5), the “viable cells in FAB1 TDP-43” value is “no increase in viable cells”. Moreover, in test [1] (0.23 μM, FIG. 6), the “propidium iodide-positive dead cells in PIKFYVE TDP-43” value was “reduced the population of propidium iodide-positive dead cells”.

On to `c1ccc(-c2nccc(-c3nc(N4CCOCC4)c4ncccc4n3)n2)cc1` [compound 39, 4-(2-(2-phenylpyrimidin-4-yl)pyrido[3,2-d]pyrimidin-4-yl)morpholine], for which the results for the IC50 in test [2] and in test [3] were less than 10 nM and 100 to 1000 nM, respectively.

In the case of `c1ccc(-c2ccn(-c3nc(N4CCOCC4)c4ncc(C5CCOCC5)cc4n3)n2)cc1` [compound 20, 4-[2-(3-phenylpyrazol-1-yl)-7-tetrahydropyran-4-yl-pyrido[3,2-d]pyrimidin-4-yl]morpholine], the values for the IC50 in test [2] and in test [3] were 10 to 100 nM and 100 to 1000 nM, respectively.

On to `Cc1cccc(-c2cc(O)n(-c3nc(N4CCOCC4)c4ncccc4n3)n2)c1` [compound 26, 1-(4-morpholinopyrido[3,2-d]pyrimidin-2-yl)-3-m-tolyl-1H-pyrazol-5-ol], for which the concentration for half-maximal inhibition (IC50) (in general, the concentration needed to halve the response being measured) lay within 10 to 100 nM in test [2] and 100 to 1000 nM in test [3].

`Cc1cccc(/C=N/Nc2cc(N3CC4CC3CO4)n3nc(-c4ccncc4)cc3n2)c1` (stereo not shown): the “FAB1 TDP-43 (active/inactive)” value with FAB1 TDP-43 yeast strain is “Inactive”. In test [1], the “PIKfyve TDP-43 (active/inactive)” value was “Active”.

For `c1ccc(-c2ccn(-c3nc(N4CCOCC4)c4ncccc4n3)n2)cc1` [compound 8, 4-(2-(3-phenyl-1H-pyrazol-1-yl)pyrido[3,2-d]pyrimidin-4-yl)morpholine], the IC50 lay within 10 to 100 nM in test [2] and 100 to 1000 nM in test [3].

Regarding `Cn1c(-c2ccncc2)nc2c(N3CCOCC3)ncnc21`, in the test with FAB1 TDP-43 yeast strain, the “FAB1 TDP-43 (active/inactive)” value is on record as “Inactive”. Further, the “PIKfyve TDP-43 (active/inactive)” value in test [1] was “Inactive”.

As to `Cc1cccc(/C=N/Nc2cc(N3CCOCC3)n3nc(-c4ccncc4)cc3n2)c1` [drawing 292], the “FAB1 TDP-43 (active/inactive)” value in the test on FAB1 TDP-43 yeast strain is on record as “Inactive”. For the same molecule, the “PIKfyve TDP-43 (active/inactive)” value in test [1] is on record as “Active”.

Take `Cc1cccc(/C=N/Nc2nc(N3CCOCC3)c3ncccc3n2)c1` [compound 24, (E)-4-(2-(2-(3-methylbenzylidene)hydrazinyl)pyrido[3,2-d]pyrimidin-4-yl)morpholine]: the IC50 in test [2] and in test [3] was 10 to 100 nM throughout.

As for `c1ccc(-c2ccn(-c3nc(N4CCOCC4)c4ncc(C5CCCCO5)cc4n3)n2)cc1` (stereo not shown) [compound 18, 4-(2-(3-Phenyl-1H-pyrazol-1-yl)-7-(tetrahydro-2H-pyran-2-yl)pyrido[3,2-d]pyrimidin-4-yl)morpholine], the concentration for half-maximal inhibition (IC50) in test [2] lay in the range of 10 to 100 nM; in test [3], 100 to 1000 nM.
